What is called IC50 is the concentration at which inhibition is half-maximal.

This passage reports IC50 results from patent EP4813991A1 (iLeadBMS Co., Ltd., priority 2023, dated 2025).

Where two headings read alike, the source gives them in different places.

The target in one assay is CDK13 (Homo sapiens, UniProt Q14004). Nature of the assay: CDK13 kinase inhibitory activity assay (33P-ATP filter binding). The class given is biochemical. Put shortly:
(§1)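 Radiometric filter-binding read-out: after 20 min compound–enzyme/substrate pre-incubation across 9 concentrations, reaction started with ^33P-γ-ATP and run 120 min at room temperature. Filter-bound ^33P-substrate measured after 0.75 % phosphoric acid washes; remaining activity versus DMSO gives IC50.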

In assay [1] the test system is MDA-MB-231 breast cancer cells. Nature of the assay: Proliferation inhibitory activity assay against MDA-MB-231 breast cancer cells. The assay is classed as cell-based. As to conditions: Homo sapiens, 72 hours, CellTiter Glo, relative IC50. Put shortly: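 Cells grown in L-15 with 10% FBS at 37 °C, 0% CO2, then exposed next day to compounds at 9 concentrations (DMSO vehicle) for 72 h. Viability read by CellTiter Glo luminescence; relative IC50 from dose-response curve fit.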

Assay [2] addresses T1, CDK12 (Homo sapiens, UniProt Q9NYV4). Put plainly: Cellular CDK12 inhibitory activity assay (Ser2 phosphorylation of RNA polymerase II subunit B1 CTD in MDA-MB-231 cells). The class given is cell-based. Details: using MDA-MB-231 breast cancer cells; endogenous in cells; host or cells: MDA-MB-231. To be noted: MDA-MB-231 cells, 6 hours treatment; read-out: pRpbl CTD S2 IC50. A digest of the protocol:
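MDA-MB-231 cells in L-15 with 10 % FBS were treated with compound at 9 concentrations for 6 h at 37 °C, 0 % CO2. In-Cell Western read phospho-Ser2 and total RNA polymerase II CTD on a Li-COR Odyssey; IC50 from 4-parameter dose-response fit.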

Assay [3] deals with T1, CDK12. Nature of the assay: CDK12 kinase inhibitory activity assay (33P-ATP filter binding). The class given is biochemical. As to conditions: kinase reaction 120 minutes, 33P-gamma-ATP; read-out: CDK12 IC50. Put shortly:
as §1

The mark [4] stands for this setting: kinase reaction 120 minutes, 33P-gamma-ATP, read-out: CDK13 IC50.

T1 sequence (Q9NYV4 whole entry, species assumed): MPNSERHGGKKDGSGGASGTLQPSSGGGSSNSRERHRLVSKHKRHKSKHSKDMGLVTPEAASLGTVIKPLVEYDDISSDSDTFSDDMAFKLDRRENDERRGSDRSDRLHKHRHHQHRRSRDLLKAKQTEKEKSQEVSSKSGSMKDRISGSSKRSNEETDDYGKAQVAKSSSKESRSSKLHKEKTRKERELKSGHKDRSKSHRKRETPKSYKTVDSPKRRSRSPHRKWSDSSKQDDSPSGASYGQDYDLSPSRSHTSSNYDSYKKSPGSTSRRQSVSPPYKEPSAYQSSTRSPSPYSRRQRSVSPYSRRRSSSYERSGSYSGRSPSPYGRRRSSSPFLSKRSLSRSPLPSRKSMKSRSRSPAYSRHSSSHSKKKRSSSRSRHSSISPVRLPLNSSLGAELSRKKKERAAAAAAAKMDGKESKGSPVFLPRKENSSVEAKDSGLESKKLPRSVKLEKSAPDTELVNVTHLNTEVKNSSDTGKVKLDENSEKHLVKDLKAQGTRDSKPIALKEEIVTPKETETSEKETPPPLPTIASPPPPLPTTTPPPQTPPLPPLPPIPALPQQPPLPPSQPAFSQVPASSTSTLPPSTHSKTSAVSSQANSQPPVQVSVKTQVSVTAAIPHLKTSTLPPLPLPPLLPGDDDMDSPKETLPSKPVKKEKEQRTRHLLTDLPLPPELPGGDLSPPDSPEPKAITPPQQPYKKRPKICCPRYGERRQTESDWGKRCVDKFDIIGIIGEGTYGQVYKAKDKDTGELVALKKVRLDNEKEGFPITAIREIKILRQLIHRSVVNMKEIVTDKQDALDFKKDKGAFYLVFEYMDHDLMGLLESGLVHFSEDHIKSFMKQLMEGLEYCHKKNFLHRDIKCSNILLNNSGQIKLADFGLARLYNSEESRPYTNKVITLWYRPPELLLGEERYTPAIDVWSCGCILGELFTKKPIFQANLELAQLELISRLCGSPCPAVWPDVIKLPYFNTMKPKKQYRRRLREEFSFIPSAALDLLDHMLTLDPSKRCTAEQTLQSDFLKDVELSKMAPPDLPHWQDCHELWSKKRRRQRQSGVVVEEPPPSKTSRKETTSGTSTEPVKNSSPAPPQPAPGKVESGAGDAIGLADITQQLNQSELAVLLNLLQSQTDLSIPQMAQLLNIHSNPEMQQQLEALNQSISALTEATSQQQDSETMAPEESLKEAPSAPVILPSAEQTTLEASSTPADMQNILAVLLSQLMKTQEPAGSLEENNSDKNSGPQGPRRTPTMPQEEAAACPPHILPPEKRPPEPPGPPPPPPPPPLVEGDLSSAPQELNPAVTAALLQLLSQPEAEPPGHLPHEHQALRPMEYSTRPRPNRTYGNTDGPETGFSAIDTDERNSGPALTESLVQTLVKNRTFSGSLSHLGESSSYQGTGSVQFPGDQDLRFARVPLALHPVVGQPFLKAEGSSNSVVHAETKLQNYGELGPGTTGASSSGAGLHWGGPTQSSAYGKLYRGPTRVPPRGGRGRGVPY
T1 sequence (O75909 whole entry partner, species assumed): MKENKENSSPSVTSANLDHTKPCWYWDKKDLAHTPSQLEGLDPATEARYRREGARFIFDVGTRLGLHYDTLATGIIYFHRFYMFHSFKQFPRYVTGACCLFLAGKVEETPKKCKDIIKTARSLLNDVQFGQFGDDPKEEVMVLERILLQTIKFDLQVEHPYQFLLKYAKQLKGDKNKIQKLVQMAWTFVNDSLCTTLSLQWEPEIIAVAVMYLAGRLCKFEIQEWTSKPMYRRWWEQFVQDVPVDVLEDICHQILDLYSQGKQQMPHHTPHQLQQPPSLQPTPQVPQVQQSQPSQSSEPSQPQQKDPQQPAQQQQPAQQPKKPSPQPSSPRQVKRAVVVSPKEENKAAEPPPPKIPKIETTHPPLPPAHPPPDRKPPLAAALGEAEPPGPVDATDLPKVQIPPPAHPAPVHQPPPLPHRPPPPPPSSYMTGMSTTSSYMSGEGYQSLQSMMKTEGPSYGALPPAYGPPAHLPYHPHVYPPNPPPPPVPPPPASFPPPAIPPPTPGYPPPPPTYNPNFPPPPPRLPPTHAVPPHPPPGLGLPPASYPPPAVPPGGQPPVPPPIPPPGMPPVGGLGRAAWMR
CDK13, sequence (Q14004 whole entry, species assumed): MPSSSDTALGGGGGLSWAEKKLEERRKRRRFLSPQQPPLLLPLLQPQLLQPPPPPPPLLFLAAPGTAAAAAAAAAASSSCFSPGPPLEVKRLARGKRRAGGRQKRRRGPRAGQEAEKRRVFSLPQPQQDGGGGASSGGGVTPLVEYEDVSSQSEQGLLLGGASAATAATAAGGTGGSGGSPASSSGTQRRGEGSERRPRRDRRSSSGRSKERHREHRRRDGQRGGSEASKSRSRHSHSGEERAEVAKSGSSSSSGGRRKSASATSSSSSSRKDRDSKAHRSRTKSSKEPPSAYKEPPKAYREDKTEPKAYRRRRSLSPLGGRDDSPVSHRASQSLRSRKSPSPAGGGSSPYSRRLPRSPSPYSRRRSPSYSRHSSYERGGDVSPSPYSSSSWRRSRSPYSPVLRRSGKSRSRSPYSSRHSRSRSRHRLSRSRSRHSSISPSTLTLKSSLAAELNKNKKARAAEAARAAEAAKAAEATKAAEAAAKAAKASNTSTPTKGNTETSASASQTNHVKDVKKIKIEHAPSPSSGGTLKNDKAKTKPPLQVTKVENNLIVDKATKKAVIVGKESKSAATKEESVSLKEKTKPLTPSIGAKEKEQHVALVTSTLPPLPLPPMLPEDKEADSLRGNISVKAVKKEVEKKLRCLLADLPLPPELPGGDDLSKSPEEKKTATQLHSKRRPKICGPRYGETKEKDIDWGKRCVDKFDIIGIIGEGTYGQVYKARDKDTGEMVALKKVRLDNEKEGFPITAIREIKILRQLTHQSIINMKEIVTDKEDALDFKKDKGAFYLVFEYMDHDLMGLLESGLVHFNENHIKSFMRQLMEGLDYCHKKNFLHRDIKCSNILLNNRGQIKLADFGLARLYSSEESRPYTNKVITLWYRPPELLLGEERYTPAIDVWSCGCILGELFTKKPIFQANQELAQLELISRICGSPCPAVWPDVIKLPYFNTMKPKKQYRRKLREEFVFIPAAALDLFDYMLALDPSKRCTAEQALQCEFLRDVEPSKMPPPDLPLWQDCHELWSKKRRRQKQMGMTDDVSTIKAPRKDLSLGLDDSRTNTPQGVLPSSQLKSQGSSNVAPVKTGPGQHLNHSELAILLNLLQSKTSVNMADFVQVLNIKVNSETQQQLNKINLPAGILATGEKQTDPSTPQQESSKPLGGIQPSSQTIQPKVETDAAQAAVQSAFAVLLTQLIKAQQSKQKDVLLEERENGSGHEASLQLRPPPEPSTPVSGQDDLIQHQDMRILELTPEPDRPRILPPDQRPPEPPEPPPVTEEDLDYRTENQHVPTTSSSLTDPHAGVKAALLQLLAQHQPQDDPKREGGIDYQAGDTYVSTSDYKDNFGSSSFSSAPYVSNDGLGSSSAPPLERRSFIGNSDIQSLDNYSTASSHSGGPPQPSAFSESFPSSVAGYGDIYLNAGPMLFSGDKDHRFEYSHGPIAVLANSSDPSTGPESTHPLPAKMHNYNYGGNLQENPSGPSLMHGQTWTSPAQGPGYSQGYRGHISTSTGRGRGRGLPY
CDK13, sequence (O75909 whole entry partner, species assumed): as the sequence (O75909 whole entry partner, species assumed) above

In the case of `O[C@H]1CCN(c2cc(NCc3nc4cc(Cl)c(Cl)cc4[nH]3)c3ncc(C(F)(F)F)n3n2)C1` [Example 63, (S)-1-(8-(((5,6-dichloro-1H-benzo[d]imidazol-2-yl)methyl)amino)-3-(trifluoromethyl)imidazo[1,2-b]pyridazin-6-yl)pyrrolidin-3-ol], the IC50 on CDK13 was under 100 nM; in assay [1], 50 to 500 nM; at CDK12 [2], under 300 nM; on CDK12 [3], 100 to 500 nM.

As for `O=C(O)C1CN(c2cc(NCc3nc4cc(Cl)c(Cl)cc4[nH]3)c3ncc(C(F)(F)F)n3n2)C1` [Example 64, 1-(8-(((5,6-dichloro-1H-benzo[d]imidazol-2-yl)methyl)amino)-3-(trifluoromethyl)imidazo[1,2-b]pyridazin-6-yl)azetidine-3-carboxylic acid], the IC50 on CDK13 (setting [4]) was under 100 nM; in assay [1] it was over 500 nM; at CDK12 [2] it was over 3000 nM; at CDK12 [3] it was 100 to 500 nM.

Consider `NC(=O)C1CN(c2cc(NCc3nc4cc(Cl)c(Cl)cc4[nH]3)c3ncc(C(F)(F)F)n3n2)C1` [Example 65, 1-(8-(((5,6-dichloro-1H-benzo[d]imidazol-2-yl)methyl)amino)-3-(trifluoromethyl)imidazo[1,2-b]pyridazin-6-yl)azetidine-3-carboxamide], for which the IC50 on CDK13 (setting [4]) is under 100 nM; in assay [1], 50 to 500 nM; on CDK12 [2], under 300 nM; at CDK12 [3], under 100 nM.

Consider `NC(=O)N1CCN(c2cc(NCc3nc4cc(Cl)c(Cl)cc4[nH]3)c3ncc(C(F)(F)F)n3n2)CC1` [Example 66, 4-(8-(((5,6-dichloro-1H-benzo[d]imidazol-2-yl)methyl)amino)-3-(trifluoromethyl)imidazo[1,2-b]pyridazin-6-yl)piperazine-1-carboxamide], for which the IC50 was under 100 nM at CDK13, 50 to 500 nM in assay [1], under 300 nM on CDK12 [2] and under 100 nM on CDK12 [3].

Take `NC(=O)C1CCN(c2cc(NCc3nc4cc(Cl)c(Cl)cc4[nH]3)c3ncc(C(F)(F)F)n3n2)CC1` [Example 67, 1-(8-(((5,6-dichloro-1H-benzo[d]imidazol-2-yl)methyl)amino)-3-(trifluoromethyl)imidazo[1,2-b]pyridazin-6-yl)piperidine-4-carboxamide]: the IC50 was under 100 nM at CDK13 (setting [4]), 50 to 500 nM in assay [1], under 300 nM at CDK12 [2] and under 100 nM at CDK12 [3].

In the case of `Fc1cc2nc(CNc3cc(N4CCOCC4)nn4c(C(F)(F)F)cnc34)[nH]c2cc1F` [Example 70, N-((5,6-difluoro-1H-benzo[d]imidazol-2-yl)methyl)-6-morpholino-3-(trifluoromethyl)imidazo[1,2-b]pyridazin-8-amine], the IC50 on CDK13 (setting [4]) is under 100 nM; in assay [1], at most 50 nM; on CDK12 [2], under 300 nM; on CDK12 [3] it was under 100 nM.

In the case of `FC(F)(F)c1cnc2c(NCc3nc4ccncc4[nH]3)cc(N3CCOCC3)nn12` [Example 74, N-((3H-imidazo[4,5-c]pyridin-2-yl)methyl)-6-morpholino-3-(trifluoromethyl)imidazo[1,2-b]pyridazin-8-amine], the IC50 on CDK13 (setting [4]) was under 100 nM; in assay [1], 50 to 500 nM; at CDK12 [2], 300 to 3000 nM; on CDK12 [3] it was under 100 nM.

For `FC(F)(F)c1ccc2[nH]c(CNc3cc(N4CCOCC4)nn4c(C(F)(F)F)cnc34)nc2c1` [Example 78, 6-morpholino-3-(trifluoromethyl)-N-((5-(trifluoromethyl)-1H-benzo[d]imidazol-2-yl)methyl)imidazo[1,2-b]pyridazin-8-amine], the half-maximal inhibitory concentration (IC50) at CDK13 (setting [4]) is under 100 nM; in assay [1], 50 to 500 nM; at CDK12 [2] it was 300 to 3000 nM; on CDK12 [3], under 100 nM.

For `Cc1cc2[nH]c(CNc3cc(N4CCOCC4)nn4c(C(F)(F)F)cnc34)nc2cc1Cl` [Example 79, N-((5-chloro-6-methyl-1H-benzo[d]imidazol-2-yl)methyl)-6-morpholino-3-(trifluoromethyl)imidazo[1,2-b]pyridazin-8-amine], the IC50 at CDK13 (setting [4]) is under 100 nM; in assay [1], at most 50 nM; at CDK12 [2], under 300 nM; at CDK12 [3], under 100 nM.

Consider `Cc1cc2[nH]c(CNc3cc(N4CCOCC4)nn4c(C(F)(F)F)cnc34)nc2cc1C(F)(F)F` [Example 80, N-((6-methyl-5-(trifluoromethyl)-1H-benzo[d]imidazol-2-yl)methyl)-6-morpholino-3-(trifluoromethyl)imidazo[1,2-b]pyridazin-8-amine], for which the 50% inhibitory concentration (IC50) on CDK13 (setting [4]) is under 100 nM; in assay [1], at most 50 nM; at CDK12 [2], under 300 nM; at CDK12 [3] it was under 100 nM.

As to `FC(F)(F)c1cc2nc(CNc3cc(N4CCOCC4)nn4c(C(F)(F)F)cnc34)[nH]c2cc1C(F)(F)F` [Example 81, N-((5,6-bis(trifluoromethyl)-1H-benzo[d]imidazol-2-yl)methyl)-6-morpholino-3-(trifluoromethyl)imidazo[1,2-b]pyridazin-8-amine], the IC50 at CDK13 (setting [4]) is 100 to 500 nM; in assay [1], 50 to 500 nM; at CDK12 [2] it was 300 to 3000 nM; on CDK12 [3], over 500 nM.

Regarding `FC(F)(F)c1cnc2c(NCc3cn4ccccc4n3)cc(N3CCOCC3)nn12` [Example 82, N-(imidazo[1,2-a]pyridin-2-ylmethyl)-6-morpholino-3-(trifluoromethyl)imidazo[1,2-b]pyridazin-8-amine], the IC50 at CDK13 was under 100 nM; in assay [1], 50 to 500 nM; on CDK12 [2], 300 to 3000 nM; at CDK12 [3], under 100 nM.

In the case of `FC(F)(F)c1cnc2c(NCc3cn4cccnc4n3)cc(N3CCOCC3)nn12` [Example 83, N-(imidazo[1,2-a]pyrimidin-2-ylmethyl)-6-morpholino-3-(trifluoromethyl)imidazo[1,2-b]pyridazin-8-amine], the IC50 on CDK13 was under 100 nM; in assay [1], 50 to 500 nM; on CDK12 [2], 300 to 3000 nM; at CDK12 [3], under 100 nM.

On to `FC(F)(F)c1cnc2c(NCc3cc4cccnc4[nH]3)cc(N3CCOCC3)nn12` [Example 84, N-((1H-pyrrolo[2,3-b]pyridin-2-yl)methyl)-6-morpholino-3-(trifluoromethyl)imidazo[1,2-b]pyridazin-8-amine], for which the IC50 at CDK13 is under 100 nM; in assay [1], 50 to 500 nM; on CDK12 [2], 300 to 3000 nM; on CDK12 [3], under 100 nM.

Regarding `FC(F)(F)c1cnc2c(NCc3cn4ncccc4n3)cc(N3CCOCC3)nn12` [Example 85, N-(imidazo[1,2-b]pyridazin-2-ylmethyl)-6-morpholino-3-(trifluoromethyl)imidazo[1,2-b]pyridazin-8-amine], the IC50 on CDK13 is under 100 nM; in assay [1] it was over 500 nM; on CDK12 [2], over 3000 nM; at CDK12 [3] it was under 100 nM.

`FC(F)(F)c1cnc2c(NCc3cc4ccccn4n3)cc(N3CCOCC3)nn12` [Example 86, 6-morpholino-N-(pyrazolo[1,5-a]pyridin-2-ylmethyl)-3-(trifluoromethyl)imidazo [1,2-b]pyridazin-8-amine]: the IC50 at CDK13 (setting [4]) was under 100 nM; in assay [1], over 500 nM; on CDK12 [2], 300 to 3000 nM; on CDK12 [3], under 100 nM.

With `FC(F)(F)c1cnc2c(NCc3cc4ncccc4[nH]3)cc(N3CCOCC3)nn12` [Example 87, N-((1H-pyrrolo[3,2-b]pyridin-2-yl)methyl)-6-morpholino-3-(trifluoromethyl)imidazo[1,2-b]pyridazin-8-amine], the 50% inhibitory concentration (IC50) on CDK13 was under 100 nM; in assay [1], 50 to 500 nM; on CDK12 [2], 300 to 3000 nM; at CDK12 [3], under 100 nM.

For the compound `Cc1cc(C)n2cc(CNc3cc(N4CCOCC4)nn4c(C(F)(F)F)cnc34)nc2n1` [Example 88, N-((5,7-dimethylimidazo[1,2-a]pyrimidin-2-yl)methyl)-6-morpholino-3-(trifluoromethyl)imidazo[1,2-b]pyridazin-8-amine], the IC50 is under 100 nM at CDK13, 50 to 500 nM in assay [1], 300 to 3000 nM at CDK12 [2] and under 100 nM at CDK12 [3].

As to `FC(F)(F)c1cnc2c(NCc3cc4ncccn4n3)cc(N3CCOCC3)nn12` [Example 89, 6-morpholino-N-(pyrazolo[1,5-a]pyrimidin-2-ylmethyl)-3-(trifluoromethyl)imidazo[1,2-b]pyridazin-8-amine], the IC50 on CDK13 was under 100 nM; in assay [1], over 500 nM; at CDK12 [2] it was over 3000 nM; at CDK12 [3] it was under 100 nM.

Consider `FC(F)(F)c1cnc2c(NCc3nc4cc(Cl)c(Cl)cc4o3)cc(N3CCOCC3)nn12` [Example 91, N-((5,6-dichlorobenzo[d]oxazol-2-yl)methyl)-6-morpholino-3-(trifluoromethyl)imidazo[1,2-b]pyridazin-8-amine], for which the concentration for half-maximal inhibition (IC50) at CDK13 (setting [4]) is over 500 nM; in assay [1], 50 to 500 nM; at CDK12 [2], 300 to 3000 nM; on CDK12 [3], over 500 nM.

In the case of `NC(=O)N1CCN(c2cc(NCc3nc4ccc(F)c(F)c4[nH]3)c3ncc(C(F)(F)F)n3n2)CC1` [Example 92, 4-(8-(((6,7-difluoro-1H-benzo[d]imidazol-2-yl)methyl)amino)-3-(trifluoromethyl)imidazo[1,2-b]pyridazin-6-yl)piperazine-1-carboxamide], the half-inhibitory concentration (IC50) at CDK13 was under 100 nM; in assay [1], 50 to 500 nM; at CDK12 [2], 300 to 3000 nM; on CDK12 [3] it was under 100 nM.
